From PMC3690672 (European journal of nuclear medicine and molecular imaging, 2009)
Several values for one entry are separate records, joined by “and”; a condition that tells them apart may be missing. Equal entries are not always repeated. Structures can show the parent of a compound that is named as a salt. Where two headings read alike, the source gives them in different places.

What was measured:
[1] = Tariquidar or elacridar concentrations in plasma and brain by LC/MS; assay type: in vivo; conditions: rat, 5 mg/kg; for concentration at 180 min: intravenous
[2] = target: T1, P-glycoprotein (P-gp) at the blood-brain barrier (Rattus norvegicus, UniProt Q6PSM0); conditions: for DV (Logan) of VPM / DV of VPM (2T4K model) / K1 of VPM (2T4K model) / k2 of VPM (2T4K model) / k3 of VPM (2T4K model) / k4 of VPM (2T4K model): whole brain, PET 120 min after, mean±SD
T1 sequence (Q6PSM0 1-1272): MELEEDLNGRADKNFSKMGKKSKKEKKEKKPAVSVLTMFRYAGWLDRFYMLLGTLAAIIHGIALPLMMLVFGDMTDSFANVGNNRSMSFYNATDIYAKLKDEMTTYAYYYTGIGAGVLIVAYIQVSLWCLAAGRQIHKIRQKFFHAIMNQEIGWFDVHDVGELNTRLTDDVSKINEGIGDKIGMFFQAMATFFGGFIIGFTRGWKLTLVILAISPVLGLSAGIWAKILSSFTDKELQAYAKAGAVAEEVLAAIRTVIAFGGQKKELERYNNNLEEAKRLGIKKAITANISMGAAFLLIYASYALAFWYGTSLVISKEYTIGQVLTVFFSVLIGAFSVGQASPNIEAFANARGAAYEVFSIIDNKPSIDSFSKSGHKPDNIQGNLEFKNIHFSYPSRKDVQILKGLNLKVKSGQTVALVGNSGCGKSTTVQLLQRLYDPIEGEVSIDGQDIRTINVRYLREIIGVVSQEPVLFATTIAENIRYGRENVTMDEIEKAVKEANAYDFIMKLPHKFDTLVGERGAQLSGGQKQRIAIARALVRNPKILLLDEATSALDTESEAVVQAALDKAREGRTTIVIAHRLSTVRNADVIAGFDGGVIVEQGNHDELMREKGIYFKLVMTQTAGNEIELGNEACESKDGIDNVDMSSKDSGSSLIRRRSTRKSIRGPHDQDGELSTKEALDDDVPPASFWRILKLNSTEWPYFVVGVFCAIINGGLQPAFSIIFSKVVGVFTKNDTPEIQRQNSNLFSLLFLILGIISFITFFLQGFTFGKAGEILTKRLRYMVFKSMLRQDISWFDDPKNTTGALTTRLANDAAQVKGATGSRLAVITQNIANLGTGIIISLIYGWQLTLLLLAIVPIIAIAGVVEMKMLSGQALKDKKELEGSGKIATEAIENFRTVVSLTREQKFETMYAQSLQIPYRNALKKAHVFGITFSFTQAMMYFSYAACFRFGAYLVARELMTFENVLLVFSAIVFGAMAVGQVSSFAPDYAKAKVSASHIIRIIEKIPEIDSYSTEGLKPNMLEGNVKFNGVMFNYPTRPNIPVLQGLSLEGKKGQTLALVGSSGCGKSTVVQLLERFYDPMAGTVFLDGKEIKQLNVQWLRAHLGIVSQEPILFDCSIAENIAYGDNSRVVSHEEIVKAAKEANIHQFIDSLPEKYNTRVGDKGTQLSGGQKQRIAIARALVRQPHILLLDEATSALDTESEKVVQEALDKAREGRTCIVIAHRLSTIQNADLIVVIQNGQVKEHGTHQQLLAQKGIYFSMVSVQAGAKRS

[3] = tested on: multidrug resistance-associated proteins (MRPs), such as MRP1; conditions: cited from earlier work
[4] = target: T1, P-glycoprotein (P-gp) at the blood-brain barrier; experiment: in vivo
[5] = tested on: P-glycoprotein (P-gp) at the blood-brain barrier; assay type: in vivo, rat; conditions: tariquidar 15 mg/kg or elacridar 5 mg/kg at 60 min after radiotracer injection
[6] = Hill fit of whole-brain DV vs inhibitor dose

Structure (SMILES): COc1cc2c(cc1OC)CN(CCc1ccc(NC(=O)c3cccc4c(=O)c5cccc(OC)c5[nH]c34)cc1)CC2 [elacridar, elacridar hydrochloride]
- concentration at 180 min ([1]; brain): 5190 ± 1420 ng/mL
- Kp at 180 min ([1]; brain, iv): 16.8 ± 5.8
- concentration at 180 min ([1]; plasma): 316 ± 61 ng/mL
- DVmax (maximum effect) [2, 6]: 11.4±0.7 ml·ml^−1
- Hill factor n [2, 6]: 5.2±2.8
- Maximum increase in VPM brain distribution (DV) over baseline ([2]; at maximum effective doses, rat brain): up to 11 fold
- Whole-brain DV increase (factor) as compared to baseline scans ([2]; inhibitor 0.3 mg/kg): 1.0±0.6
- Whole-brain DV increase (factor) as compared to baseline scans ([2]; inhibitor 1 mg/kg): 3.5±1.5
- Whole-brain DV increase (factor) as compared to baseline scans ([2]; inhibitor 2 mg/kg): 9.4±1.5
- Whole-brain DV increase (factor) as compared to baseline scans ([2]; inhibitor 5 mg/kg): 8.9±1.4
- Whole-brain DV increase (factor) as compared to baseline scans ([2]; inhibitor 7.5 mg/kg): 11.3±0.2
- DV (Logan) of VPM ([2]; inhibitor 0.3 mg/kg i.v.): 1.22±0.51 (2.9) ml·ml^−1
- DV of VPM (2T4K model) ([2]; inhibitor 0.3 mg/kg i.v.): 1.28±0.54 (3.1) ml·ml^−1
- K1 of VPM (2T4K model) ([2]; inhibitor 0.3 mg/kg i.v.): 0.13±0.10 (16.5) ml·ml^−1·min^−1
- k2 of VPM (2T4K model) ([2]; inhibitor 0.3 mg/kg i.v.): 0.29±0.06 (36.5) min^−1
- k3 of VPM (2T4K model) ([2]; inhibitor 0.3 mg/kg i.v.): 0.14±0.02 (41.4) min^−1
- k4 of VPM (2T4K model) ([2]; inhibitor 0.3 mg/kg i.v.): 0.07±0.01 (16.7) min^−1
- DV (Logan) of VPM ([2]; inhibitor 1 mg/kg i.v.): 4.47±1.51 (0.9) ml·ml^−1
- DV of VPM (2T4K model) ([2]; inhibitor 1 mg/kg i.v.): 4.49±1.51 (2.9) ml·ml^−1
- K1 of VPM (2T4K model) ([2]; inhibitor 1 mg/kg i.v.): 0.57±0.19 (18.1) ml·ml^−1·min^−1
- k2 of VPM (2T4K model) ([2]; inhibitor 1 mg/kg i.v.): 0.33±0.10 (78.9) min^−1
- k3 of VPM (2T4K model) ([2]; inhibitor 1 mg/kg i.v.): 0.29±0.11 (93.2) min^−1
- k4 of VPM (2T4K model) ([2]; inhibitor 1 mg/kg i.v.): 0.19±0.06 (33.3) min^−1
- DV (Logan) of VPM ([2]; inhibitor 2 mg/kg i.v.): 11.72±1.47 (0.6) ml·ml^−1
- DV of VPM (2T4K model) ([2]; inhibitor 2 mg/kg i.v.): 12.00±1.49 (2.4) ml·ml^−1
- K1 of VPM (2T4K model) ([2]; inhibitor 2 mg/kg i.v.): 0.92±0.16 (7.2) ml·ml^−1·min^−1
- k2 of VPM (2T4K model) ([2]; inhibitor 2 mg/kg i.v.): 0.18±0.06 (42.2) min^−1
- k3 of VPM (2T4K model) ([2]; inhibitor 2 mg/kg i.v.): 0.29±0.09 (68.5) min^−1
- k4 of VPM (2T4K model) ([2]; inhibitor 2 mg/kg i.v.): 0.22±0.03 (21.1) min^−1
- DV (Logan) of VPM ([2]; inhibitor 5 mg/kg i.v.): 11.16±1.44 (1.1) ml·ml^−1
- DV of VPM (2T4K model) ([2]; inhibitor 5 mg/kg i.v.): 11.40±1.45 (3.8) ml·ml^−1
- K1 of VPM (2T4K model) ([2]; inhibitor 5 mg/kg i.v.): 0.93±0.26 (17.0) ml·ml^−1·min^−1
- k2 of VPM (2T4K model) ([2]; inhibitor 5 mg/kg i.v.): 0.22±0.06 (58.8) min^−1
- k3 of VPM (2T4K model) ([2]; inhibitor 5 mg/kg i.v.): 0.28±0.05 (79.7) min^−1
- k4 of VPM (2T4K model) ([2]; inhibitor 5 mg/kg i.v.): 0.16±0.01 (35.4) min^−1
- DV (Logan) of VPM ([2]; inhibitor 7.5 mg/kg i.v.): 14.20±0.13 (0.4) ml·ml^−1
- DV of VPM (2T4K model) ([2]; inhibitor 7.5 mg/kg i.v.): 14.55±0.06 (2.6) ml·ml^−1
- K1 of VPM (2T4K model) ([2]; inhibitor 7.5 mg/kg i.v.): 0.98±0.08 (6.4) ml·ml^−1·min^−1
- k2 of VPM (2T4K model) ([2]; inhibitor 7.5 mg/kg i.v.): 0.15±0.02 (43.5) min^−1
- k3 of VPM (2T4K model) ([2]; inhibitor 7.5 mg/kg i.v.): 0.25±0.07 (55.4) min^−1
- k4 of VPM (2T4K model) ([2]; inhibitor 7.5 mg/kg i.v.): 0.22±0.04 (30.3) min^−1
- Inhibition of MRPs, such as MRP1 [3]: do not inhibit
- EC50 at 180 min [4]: 0.115 ± 0.0222 µg/mL
- ED50 at 120 min ([4]; Sprague-Dawley, iv): 1.2 ± 0.1 mg/kg
- Time of peak VPM brain uptake (maximum effect) after inhibitor injection [5]: 30 ± 5 min and 30 min
